In brackets after ≈: the same amount, converted by molar mass. Entries after “also recorded” stand apart in the source; their conditions may differ. Structures can show the parent of a compound that is named as a salt.
How the values were obtained:
[1] = system: antiaggregation and hypotensive activity; experiment: Selectivity: antiaggregation versus hypotensive activity; details: for H^1 /H^2: relative anti-aggregation efficiency / relative hypotensive efficiency
Protocol: (§1) The selective biological activity of these compounds may be studied by investigating the antiaggregation and hypotensive activity simultaneously. Anti-aggregation activity was measured in vitro according to Born Nature, 214, 927 (1962) on human plasma enriched with thrombocytes in an aggregation induced by […] ADP, whereas the haemodynamic activity was obtained from the blood pressure reducing activity of the compound administered in an i.v. bolus injection to an anaesthetized cat with an open-chest.

[2] = system: anaesthetized cat with an open-chest; experiment: Hypotensive (haemodynamic, blood pressure reducing) activity, i.v. bolus, anaesthetized open-chest cat; format: in vivo; details: for relative efficiency H^2 (hypotensive): relative to PGI2-Na = 1; for ED50: Felis catus, iv
Protocol: as §1

[3] = system: human plasma enriched with thrombocytes; experiment: Anti-aggregation activity in vitro (Born), ADP-induced aggregation; format: cell-based; details: for relative efficiency H^1 (anti-aggregation): relative to PGI2-Na = 1
Protocol: as §1

[4] = background; cited from earlier work
[5] = i.v. bolus, anaesthetized open-chest cat
[6] = in vitro, human plasma enriched with thrombocytes, 2 μm ADP

Row | SMILES | selectivity compared with prostacycline and 7-oxo-PGI2 sodium salt (in words) ([1]; from H^1/H^2, listed as cyclopentyl analog) | H^1 /H^2 [1] | hypotensive activity ED50 [2, 5] | relative efficiency H^2 (hypotensive) [2] | anti-aggregation IC50 [3, 6] | relative efficiency H^1 (anti-aggregation) [3] | chemical and biological stability (in words) [4] | ED50 [2, 5] | IC50 [3, 6]
1 | O=C([O-])CCCC=C1OC2CC(O)C(C=CC(O)C3CCCC3)C2C1=O.[Na+] (stereo not shown) [Sodium salt of 7-oxo-16,17,18,19,20-pentanor-15-cyclopentyl-PGI2] | about hundred times more selective than prostacycline; also recorded: considerably more selective than the sodium salt of 7-oxo-PGI2 | 83.1 | 21.2 µg/kg | 0.0075 | 1.6 ng/mL | 0.625 |  |  | 
2 | CCCCC[C@H](O)/C=C/[C@@H]1[C@H]2C/C(=C/CCCC(=O)O)O[C@H]2C[C@H]1O [PGI2, Prostacyclin] |  |  |  |  |  |  | chemical and biological instability |  | 
3 | CCCCC[C@H](O)/C=C/[C@@H]1[C@H]2C(=O)/C(=C/CCCC(=O)O)O[C@H]2C[C@H]1O [7-oxo-PGI2 --Na, sodium salt of 7-oxo-PGI2] |  | 2.75 |  | 0.024 |  | 0.086 |  | 6.5 µg/kg | 15 ng/mL
4 | CCCCC[C@H](O)/C=C/[C@@H]1[C@H]2C/C(=C/CCCC(=O)O)O[C@H]2C[C@H]1O [PGI2 --Na] |  | 1 |  | 1 |  |  |  | 0.16 µg/kg | 1 ng/mL (≈ 2.84 nM)

Reference: patent US4588713A, “Selective biologically active 7-oxo-prostacyclin derivatives and pharmaceutical compositions containing same” (Chinoin Gyogyszer Vegyeszeti Termekek Gyara Rt., priority 1984, dated 1986)
